# Numbers after ± are expanded uncertainties.
structure (smiles),measurement,setting,value
"O=NN1CN(N=O)CN(N=O)C1 [1,3,5-trinitroso-1,3,5-triazacyclohexane]",Triple point temperature,Crystal 1,380.15 ± 2 K
same,Triple point temperature,Crystal 2,369.25 ± 2 K
